Experimental data published in patent publication US8834858B2, “Treatment for dyslipidemia” (Solvotrin Therapeutics Ltd., priority 2011, dated 2014).
“Also recorded” adds a separate entry of the source. Where two headings read alike, the source gives them in different places.

Key:
TG, LDL, HDL = conditions: atorvastatin 10 mg/day, Slo-Niacin to 1500 mg/day, 3-month segments; cited from earlier work
[1] = tested on: LDL cholesterol, HDL cholesterol, TG; conditions: adult dyslipidemias; cited from earlier work
[2] = tested on: LDL cholesterol, Apolipoprotein B, TGs; experiment: NHP crossover study: clinical chemistry (LDL-C, ApoB, TG)
Experimental: (§3) The primary study endpoint is change in plasma LDL cholesterol and Apolipoprotein B at 48 hours. An aliquot of 300 μL of serum transferred to a cryovial and was immediately placed in a freezer set to maintain −70° C. until analyzed for clinical chemistry (LDL cholesterol, Apolipoprotein B, TGs, glucose) using a standard Roche Analyser.

[3] = Incubation with microsomes from the human intestinal wall; format: in vitro ADME
Experimental: FIG. 7 depicts a progress curve following incubation of ST0702 in the presence of microsomes from the human intestinal wall.
(§1) Hydrolysis kinetics of isosorbide diaspirinate,” Eur. J. Pharm. Sciences 16 2002 297-304.

[4] = Incubation in diluted human intestinal contents; format: in vitro ADME; conditions: prolonged period
From the text: as §1

[5] = Incubation with rat intestinal preparation; format: in vitro ADME
thromboxane B2 (TxB2) = experiment: NHP crossover study: ex-vivo serum TxB2; format: in vivo, cynomolgus monkeys
Experimental: (§2) For TxB2, an additional 0.4 mL whole blood aliquots were placed in siliconised glass tubes to induce a clotting response and the supernatants were analysed for TxB2 using a Luminex ELISA immunoassay. PGD2 was analysed from serum directly using a Luminex ELISA immunoassay.

[6] = pH 7.4
Experimental: Microsomes from human hepatocytes (post mortem tissue) were diluted with pH 7.4 buffer and the suspension warmed to 37° C. ST0702 was introduced and samples withdrawn at successive time intervals.
Hydrolysis kinetics of isosorbide diaspirinate,” Eur. J. Pharm.

[7] = Incubation in human gastric juice; format: in vitro ADME; conditions: over 60 minutes
From the text: as §1

[8] = Incubation with pig intestinal S9 fraction; format: in vitro ADME
Experimental: FIG. 2 depicts a progress curve for the disappearance of ST0702 following incubation with pig intestinal S9 fraction.
as §1

[9] = Incubation with rabbit intestinal preparation; format: in vitro ADME
[10] = Stomach irritation on administration of compound I; format: in vivo; conditions: statement in description; test not named
Experimental: Therefore, stomach irritation is not observed with the administration of isosorbide-2-acetylsalicylate-5-nicotinic acid (I). […] In some embodiments, the present invention provides a composition comprising isosorbide-2-acetylsalicylate-5-nicotinic acid (I) wherein the composition protects the gastrointestinal mucosa from irritation and inflammation.
Ulcerogenic effects of aspirin and aspirin pro-drugs ST0701, ST0702, and ST0703 were determined in rabbits using the following procedure. Healthy female rabbits (n=2 per group) were dosed (by oral gavage) for 3 consecutive days with 30 mg/kg of aspirin or the molar equivalent of ST0702 and the other pro drugs. Four hours post-dose on the final day, the rabbits were euthanized using an overdose of pentobarbitone and their stomachs and small intestine removed, washed with physiological saline, opened along the greater curvature and examined. The area (square millimeters) of both non-haemorrhagic and haemorrhagic lesions developed in the stomach/intestines were measured with a square grid under a dissecting microscope.

serum glucose = experiment: NHP crossover study: serum glucose
Experimental: as §3

[11] = Incubation with mouse intestinal preparation; format: in vitro ADME
prostaglandin D2 (PGD2) = experiment: NHP crossover study: serum PGD2; format: in vivo, cynomolgus monkeys
Experimental: as §2

[12] = Hydrolysis of ST0702 in 50% human plasma; format: in vitro ADME; conditions: 50% human plasma diluted with pH 7.4 buffer, 37° C.
Experimental: FIG. 1 depicts a progress curve for the disappearance of isosorbide-2-aspirinate-5-nicotinate (ST0702) following incubation (in vitro) in 50% human plasma diluted with pH 7.4 buffer at 37° C.
A Waters Spherisorb® (4 μm) C18 3.9×250 mm column was used for the plasma and enzyme study samples. The enzyme and plasma study samples were analysed using a gradient method employing a mobile phase consisting of pH 3.19 phosphate buffer:acetonitrile 90:10 grading to 10:90 over the first ten minutes then back to 65:35 to 12 minutes and grading to 90:10 to 17 minutes at which it was held to 30 minutes. The eluent in both methods was monitored at 230 nm and peak identity and homogeneity confirmed by PDA analysis. Quantitation was performed by comparison of peak areas with external standards run under the same conditions at about the same concentration. The flow rate was 1 ml/min.
For the hydrolysis experiments pooled plasma or serum solutions (4 ml) were prepared by centrifugation of citrated human venous blood and dilution with pH 7.4 phosphate buffer as appropriate. Whole blood was used undiluted. […] 20 μl aliquots of the supernatant were analysed by HPLC. Hydrolysis was monitored until consumption of the parent ester. […] Cholinesterase activity of plasma, serum and whole blood was evaluated using the Ellman approach with butyryl thiocholine as substrate. […]

[13] = cited from earlier work
[14] = cited from earlier work; remark: listed apart in the source
[15] = cited from earlier work; remark: listed apart in the source
[16] = cited from earlier work; remark: listed apart in the source
PGD2 receptor-1 (DP1) = PGD2 receptor-1 (DP1) (Homo sapiens, UniProt Q13258); conditions: cited from earlier work; for reduction of flushing associated with 1.5 g ER nicotinic acid: single dose study
Chain of PGD2 receptor-1 (DP1) (Q13258 whole entry): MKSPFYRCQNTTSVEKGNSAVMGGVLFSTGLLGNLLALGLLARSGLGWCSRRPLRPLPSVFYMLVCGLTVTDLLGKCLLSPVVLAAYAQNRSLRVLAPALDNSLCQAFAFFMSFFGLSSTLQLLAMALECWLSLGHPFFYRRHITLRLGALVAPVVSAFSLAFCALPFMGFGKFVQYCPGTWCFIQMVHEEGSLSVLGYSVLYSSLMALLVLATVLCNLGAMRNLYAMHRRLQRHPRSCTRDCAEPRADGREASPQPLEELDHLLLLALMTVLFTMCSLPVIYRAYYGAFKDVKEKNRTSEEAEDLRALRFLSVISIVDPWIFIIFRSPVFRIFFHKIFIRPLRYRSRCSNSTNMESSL

[17] = tested on: fasting glucose, glycated albumin, TG, total cholesterol; conditions: cited from earlier work; for fall in fasting glucose levels: two weeks
[18] = tested on: fasting glucose, glycated albumin; conditions: 4.0 g, one month; cited from earlier work
HbA1c = conditions: cited from earlier work
[19] = baseline to 48 hours, 28 mg/kg niacin equivalents daily oral gavage, n=6
[20] = high risk patients (secondary prevention)

## CC(C)c1c(C(=O)Nc2ccccc2)c(-c2ccccc2)c(-c2ccc(F)cc2)n1CC[C@@H](O)C[C@@H](O)CC(=O)O [Atorvastatin]
TG, LDL, HDL
  HDL: +6%
  LDL: −36%
  TG: −26%

## O=C1[C@H](CC[C@H](O)c2ccc(F)cc2)[C@@H](c2ccc(O)cc2)N1c1ccc(F)cc1 [Ezetimibe]
[1]
  HDL cholesterol: +3%
  LDL cholesterol: −18 to −24%
  TG: No change

## CC(=O)Oc1ccccc1C(=O)O[C@H]1CO[C@H]2[C@@H]1OC[C@H]2OC(=O)c1cccnc1 [ST0702, isosorbide-2-aspirinate-5-nicotinate]
[2]; 48 hours
  TG levels at 48 hours (follow up): 55 ± 24 mg/dL
[2]; baseline
  TG levels at baseline: 59 ± 29 mg/dL
[2]; baseline to 48 hours
  increase in TG levels (non-significant): 4.4%
[2]; [19]
  reduction from baseline in LDL cholesterol: 53%
  reduction from baseline in apolipoprotein B: 42%
[3]
  hydrolysis pattern in human intestinal wall microsomes: hydrolysis predominantly at the isosorbide-2-position liberating aspirin and isosorbide-5-nicotinate
[4]
  stability in human intestinal contents: effectively unchanged
[5]
  aspirin production from ST0702: do not produce aspirin
Thromboxane B2 (TxB2); at 24 and 48 hours
  serum TxB2 suppression: > 95%
Thromboxane B2 (TxB2); from 15 minutes on, within group and vs niacin
  serum TxB2 levels: significantly reduced
[6]
  hydrolysis pattern in human liver microsomes: more significant direct hydrolysis at position 5 leading to direct nicotinic acid production
[7]
  metabolism in human gastric juice: not metabolized
[8]
  aspirin production from ST0702: do not produce aspirin
[9]
  aspirin production from ST0702: do not produce aspirin
[10]
  stomach irritation: not observed
Serum glucose; 1 hour post dose
  serum glucose change from baseline: significant decrease
Serum glucose; 4 hours post dose
  plasma glucose versus baseline: remained below baseline levels; also recorded: significant reduction
[11]
  aspirin production from ST0702: do not produce aspirin
Prostaglandin D2 (PGD2); over 24 hours
  reduction in PGD2 AUC levels compared to nicotinic acid: 8 fold
Prostaglandin D2 (PGD2); over 24 hours post dosing, equimolar doses
  PGD2 AUC: 16.2 ± 6.4 ng·h/mL
[12]
  disappearance of ST0702 / conversion to hydrolysis products: rapid conversion to a series of hydrolysis products

## CC(=O)Oc1ccccc1C(=O)O [aspirin]
[13]; [20]
  prevention of non-fatal vascular events: about 30%
  prevention of vascular death: approximately 15%
[13]; patients with unstable angina
  risk reduction: approximately 50%
[13]; primary prevention
  reductions in risk of MI: 25%-33
[13]; prior MI, stroke, or TIA, approximately 30 months
  avoidance of a major vascular event: 36 per 1,000 patients
[13]; unstable angina, treated for 6 months
  avoidance of a major vascular event: 50 per 1,000 patients
[14]; Acute MI
  Lowest effective daily dose: 160 mg
[14]; Acute ischaemic stroke
  Lowest effective daily dose: 160 mg
[14]; Hypertension
  Lowest effective daily dose: 75 mg
[14]; Men at high CV risk
  Lowest effective daily dose: 75 mg
[14]; Polycythemia
  Lowest effective daily dose: 100 mg
[14]; Severe carotid artery stenosis
  Lowest effective daily dose: 75 mg
[14]; Stable angina
  Lowest effective daily dose: 75 mg
[14]; TIA and ischaemic stroke
  Lowest effective daily dose: 50 mg
[14]; Unstable angina
  Lowest effective daily dose: 75 mg
[15]; daily aspirin use even at low doses
  patients with at least occult bleeding: More than 75%
[15]; low dose aspirin (75-325 mg daily), 22 randomized trials
  absolute annual increased risk of major bleeding episodes: 1.3 per 1000 patients
[16]; 325 mg, 30-60 minutes before IR nicotinic acid
  effect on flushing symptoms: attenuated flushing symptoms
[16]; first week of treatment, with vs without aspirin
  patients with moderate or greater flushing: 15%
[16]; four week study, 325 mg aspirin before ER nicotinic acid vs no aspirin
  flushing-specific discontinuation rate: 1.8%
[16]; pre-treatment with aspirin
  reduction of the incidence of flushing: 18%
[16]; with adjunctive aspirin
  mean rate of treatment discontinuation because of nicotinic acid flushing: approximately 6.5%

## CS(=O)(=O)c1cc(F)cc2c3c(n(Cc4ccc(Cl)cc4)c12)[C@@H](CC(=O)O)CC3 [laropiprant]
PGD2 receptor-1 (DP1); 30 mg dose
  reduction of flushing associated with 1.5 g ER nicotinic acid: 47%
PGD2 receptor-1 (DP1); 100 mg dose
  reduction of flushing associated with 1.5 g ER nicotinic acid: 67%
PGD2 receptor-1 (DP1); 300 mg dose
  reduction of flushing associated with 1.5 g ER nicotinic acid: 74%
PGD2 receptor-1 (DP1); 4,700 patients, ER nicotinic acid without vs with added laropiprant
  overall discontinuation rate: 25.3%
PGD2 receptor-1 (DP1); nicotinic acid without vs with added laropiprant (Kush 2009)
  rate of moderate/severe flushing: 24%

## O=C(Oc1ccccc1C(=O)O)c1ccccc1O [salsalate]
[17]; 3.0 g/daily
  fall in fasting glucose levels: 9%
[17]; 3.0 g
  decrease in TG concentrations: 11%
[17]; 4.5 g daily
  fall in fasting glucose levels: 19%
[17]; 4.5 g dose
  reduction in glycated albumin: 19%
[17]; 4.5 g
  decrease in TG concentrations: 40%
[17]; in vivo
  fall in total cholesterol: 12%
[18]
  reduction of fasting glucose compared with placebo: 13%
  reduction of glycated albumin: 17%
  reduction of glycemic response after an oral glucose challenge: 20%
HbA1c; 3.0 g daily
  mean change in HbA1c levels compared with placebo: −0.36%
HbA1c; 3.5 g daily
  mean change in HbA1c levels compared with placebo: −0.34%
HbA1c; 4.0 g daily
  mean change in HbA1c levels compared with placebo: −0.49%
